From patent US11844350B2, “Plant growth regulation” (Syngenta Participations AG, priority 2017, dated 2023)

System: rice (Oryza sativa L.) varieties ADT45
Assay: Plant growth regulation field trial in rice, India (lodging, plant height, heat stress symptoms)
Format: in vivo
Description: Field trials were setup during the hot season in Annanagar and Kumbakonam in India. Local rice (Oryza sativa L.) varieties ADT45 was mechanically transplanted at four plants per hill with a plant spacing of 16 cm and a row spacing of 30 cm. All trials were performed in good level of water management. Fertilizer application, and weed, insect and disease control were carried out in accordance with the best local practice across the trial area. Commercial treated seeds were used (with no neonicotinoid compounds present).
The trial design was a randomized bloc design, with a plot size of 40 m^2 (12 rows, each […] and 10 m long); each trial had four replicates.
Overall trial quality was very high: there was no insect damage and no disease pressure or weeds; the plots were very homogenous. Heat stress level was low to medium with 5-10% empty spikelets in the untreated control.

COc1cccc(Nc2nc(F)nc3[nH]cnc23)c1 [Formula (Ia)]
Lodging (%) (10 g ai/ha, applied at panicle initiation (BBCH 30)): 29.0% | Lodging (%) (20 g ai/ha, applied at BBCH 30): 56.0% | Lodging compared to the untreated control (result in words): significantly reduces lodging
